Results from patent US9890166B2, “Imidazopyrrolidine derivatives and their use in the treatment of disease” (NOVARTIS AG, priority 2013, dated 2018).

Tests used:
BRD2 (His-Brd2(60-472)) = BRD2 (His-Brd2(60-472)) (Homo sapiens (Human), UniProt P25440); test: TR-FRET in-vitro binding assay for BRD2; conditions: single determination or n ≧ 2 independent determinations, read-out: Biochemical IC50 BRD2
Experimental: TR-FRET In-Vitro Binding Assays for BRD2, BRD3, and BRD4:
All assays were performed in 384 well microtiter plates. Each assay plate contained 8-point serial dilutions for 40 test compounds, plus 16 high- and 16 low controls. Liquid handling and incubation steps were done on an Innovadyne Nanodrop Express equipped with a robotic arm (Thermo CatX, Perkin Elmer/Caliper Twister II) and an incubator (Liconic STX40, Thermo Cytomat 2C450). The assay plates were prepared by addition of 50 nl per well of compound solution in 90% DMSO HummingBird nanodispenser (Zinsser Analytic). […] Reactions were incubated at 30° C. for 35 minutes. […] After 35 minutes incubation at 30° C., plates were measured in a Perkin Elmer EnVision multilabel reader.
Preparation of Compound Dilutions
Test compounds were dissolved in DMSO (10 mM) and transferred into 1.4 mL flat bottom or V-shaped Matrix tubes carrying a unique 2D matrix. The stock solutions were stored at […] if not used immediately. For the test procedure the vials were defrosted and identified by a scanner whereby a working sheet was generated that guided the subsequent working steps.
Compound dilutions were made in 96 well plates. This format enabled the assay of maximally 40 individual test compounds at 8 concentrations (single points) including 4 reference compounds, if desired (known BET inhibitors from the prior art, for this and other assays of the type disclosed herein). The dilution protocol included the production of “pre-dilution plates”, “master plates” and “assay plates”.
Pre-Dilution Plates: 96 polypropylene well plates were used as pre-dilution plates. A total of 4 pre-dilution plates were prepared including 10 test compounds each on the plate positions A1-A10, one standard compound at A11 and one DMSO control at A12. All dilution steps were done on a HamiltonSTAR robot.
These plates were used directly for the assay which was performed in a total volume of 13.55 μL.

K-562 cells = test: Cell growth inhibition assay (CellTiter-Glo), K-562; conditions: for GI50: Homo sapiens, K562, read-out: K-562 GI50; for K-562 TGI: K-562 cells, total growth inhibition, CellTiter-Glo;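 for all read-outs here: cellular ATP measured by luminescence after 4 days of exposure, 3-fold dilution series from 10 µM, DMSO vehicle-treated cells define 100%, cell-free medium wells −100%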
BRD4 (His-Brd4(44-477)) = BRD4 (His-Brd4(44-477)) (Homo sapiens (Human), UniProt O60885); test: TR-FRET in-vitro binding assay for BRD4; conditions: single determination or n ≧ 2 independent determinations, read-out: Biochemical IC50 BRD4
Summary of the method: (§1)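 His-tagged BRD2, BRD3 and BRD4 fragments tested by TR-FRET at 8 compound concentrations, with DMSO stocks at 10 mM. Read on EnVision after 35 min incubation at 30° C.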

BRD3 (His-Brd3(20-477)) = BRD3 (His-Brd3(20-477)) (Homo sapiens (Human), UniProt Q15059); test: TR-FRET in-vitro binding assay for BRD3; conditions: single determination or n ≧ 2 independent determinations, read-out: Biochemical IC50 BRD3
Summary of the method: as §1

[1] = target: CREBBP bromodomain (His-CREBBP(1081-1197)) (Homo sapiens (Human), UniProt Q92793); test: AlphaScreen in-vitro binding assay for CREBBP; conditions: single determination or n ≧ 2 independent determinations, read-out: Biochemical IC50 CREBBP
Summary of the method: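 Detection used nickel-chelate acceptor plus streptavidin donor AlphaScreen beads, 1 h room temperature. Percent inhibition fitted by non-linear regression to IC50.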

MV-4-11 cells = test: Cell growth inhibition assay (CellTiter-Glo), MV-4-11; conditions: for GI50: Homo sapiens, MV4-11, read-out: MV-4-11 GI50; for MV-4-11 TGI: MV-4-11 cells, total growth inhibition, CellTiter-Glo;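 for all read-outs here: cellular ATP luminescence after 4 days, 3-fold dilution series from 10 µM top dose, vehicle (0.1% DMSO) set to 100%, cell-free medium set to −100%, day 0 corrected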
THP-1 cells = test: Cell growth inhibition assay (CellTiter-Glo), THP-1; conditions: for GI50: Homo sapiens, THP-1, read-out: THP-1 GI50; for THP-1 TGI: THP-1 cells, total growth inhibition, CellTiter-Glo;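 for all read-outs here: viability read as cellular ATP luminescence after 4 days, 3-fold dilution series from 10 µM, DMSO vehicle-treated cells taken as 100%, cell-free medium wells as −100%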

Sequence of BRD2 (His-Brd2(60-472)) (P25440 60-472): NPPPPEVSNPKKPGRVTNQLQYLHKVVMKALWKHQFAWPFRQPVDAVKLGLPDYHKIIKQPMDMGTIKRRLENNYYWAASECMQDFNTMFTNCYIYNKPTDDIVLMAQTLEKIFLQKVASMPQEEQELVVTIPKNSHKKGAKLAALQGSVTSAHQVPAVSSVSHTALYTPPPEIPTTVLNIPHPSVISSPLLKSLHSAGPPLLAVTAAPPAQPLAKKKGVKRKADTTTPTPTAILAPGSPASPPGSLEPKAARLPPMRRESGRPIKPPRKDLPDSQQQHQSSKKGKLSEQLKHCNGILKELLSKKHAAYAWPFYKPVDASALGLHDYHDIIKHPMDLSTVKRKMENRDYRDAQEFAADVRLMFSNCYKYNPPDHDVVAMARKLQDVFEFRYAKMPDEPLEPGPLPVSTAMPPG
Sequence of CREBBP bromodomain (His-CREBBP(1081-1197)) (Q92793 1081-1197): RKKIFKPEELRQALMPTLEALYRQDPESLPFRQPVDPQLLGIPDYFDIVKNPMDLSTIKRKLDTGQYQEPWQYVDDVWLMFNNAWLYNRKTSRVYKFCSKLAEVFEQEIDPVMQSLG
Sequence of BRD3 (His-Brd3(20-477)) (Q15059 20-477): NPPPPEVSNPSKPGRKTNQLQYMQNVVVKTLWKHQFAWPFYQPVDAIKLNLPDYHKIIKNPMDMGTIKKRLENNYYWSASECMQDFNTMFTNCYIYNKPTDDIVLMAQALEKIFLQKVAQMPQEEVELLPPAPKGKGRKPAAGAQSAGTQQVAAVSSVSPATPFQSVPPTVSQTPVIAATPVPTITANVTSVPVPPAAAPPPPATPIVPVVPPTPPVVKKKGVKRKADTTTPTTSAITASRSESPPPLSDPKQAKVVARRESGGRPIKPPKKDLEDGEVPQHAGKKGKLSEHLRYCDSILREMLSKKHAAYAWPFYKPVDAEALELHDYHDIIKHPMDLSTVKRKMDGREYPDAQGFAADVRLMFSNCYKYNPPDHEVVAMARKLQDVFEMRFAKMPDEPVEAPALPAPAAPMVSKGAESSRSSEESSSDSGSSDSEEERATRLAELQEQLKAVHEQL

| SMILES | IC50 (BRD2 (His-Brd2(60-472))) [nM] | GI50 (K-562 cells) [nM] | K-562 TGI (K-562 cells) [nM] | IC50 (BRD4 (His-Brd4(44-477))) [nM] | IC50 (BRD3 (His-Brd3(20-477))) [nM] | IC50 [1] [nM] | GI50 (MV-4-11 cells) [nM] | MV-4-11 TGI (MV-4-11 cells) [nM] | GI50 (THP-1 cells) [nM] | THP-1 TGI (THP-1 cells) [nM] |
| --- | --- | --- | --- | --- | --- | --- | --- | --- | --- | --- |
| Cc1cc(N2C(=O)c3nc(C4CC4)n(C(C)C)c3C2c2ccc(Cl)cc2)cn(C)c1=O (stereo not shown) [Example 28, 6-(4-chlorophenyl)-2-cyclopropyl-5-(1,5-dimethyl-6-oxo-1,6-dihydropyridin-3-yl)-1-isopropyl-5,6-dihydropyrrolo[3,4-d]imidazol-4(1H)-one] | 104 | 908 | >10000 | 117 | 93.7 | 3400 | 97.9 | 136 | 208 | 384 |
| COc1ncc(-c2nc3c(n2C(C)C)C(c2ccc(Cl)cc2)N(c2cc(C)c4onc(C)c4c2)C3=O)c(OC)n1 (stereo not shown) [Example 34, 6-(4-chlorophenyl)-2-(2,4-dimethoxypyrimidin-5-yl)-5-(3,7-dimethylbenzo[d]-isoxazol-5-yl)-1-isopropyl-5,6-dihydropyrrolo[3,4-d]imidazol-4(1H)-one] | 98.2 | 219 | >10000 | 65.2 | 76.5 | 1670 | 36.6 | 76.6 | 64.9 | 109 |
| COc1ccc(-c2nc3c(n2C(C)C)C(c2ccc(Cl)cc2)N(c2cc(C)c4onc(C)c4c2)C3=O)cn1 (stereo not shown) [Example 35, 6-(4-chlorophenyl)-5-(3,7-dimethylbenzo[d]isoxazol-5-yl)-1-isopropyl-2-(6-methoxypyridin-3-yl)-5,6-dihydropyrrolo[3,4-d]imidazol-4(1H)-one] | 43 | 946 | >10000 | 21 | 35 | > 37000 | 226 | 384 | 289 | 462 |
| CCCn1c(-c2cc(OC)ncc2F)nc2c1C(=O)N(c1cc(C)c(=O)n(C)c1)C2c1ccc(Cl)cc1 (stereo not shown) [Example 36, 6-(4-chlorophenyl)-5-(1,5-dimethyl-6-oxo-1,6-dihydropyridin-3-yl)-2-(5-fluoro-2-methoxypyridin-4-yl)-3-propyl-5,6-dihydropyrrolo[3,4-d]imidazol-4(3H)-one] | 164 | 250 | >10000 | 150 | 160 | 2500 | 59.8 | 104 | 115 | 235 |
| CCCn1c(-c2cncc(C#N)c2)nc2c1C(=O)N(c1cc(C)c(=O)n(C)c1)C2c1ccc(Cl)cc1 (stereo not shown) [Example 37, 5-(4-(4-chlorophenyl)-5-(1,5-dimethyl-6-oxo-1,6-dihydropyridin-3-yl)-6-oxo-1-propyl-1,4,5,6-tetrahydropyrrolo[3,4-d]imidazol-2-yl)nicotinonitrile] | 274 | 320 | >10000 | 166 | 164 | 4100 | 66.9 | 105 | 100 | 195 |
| Cc1cc(N2C(=O)c3nc(C4=CCOC4)n(C(C)C)c3[C@H]2c2ccc(Cl)cc2)cn2c(C)nnc12 [Example 48, (R)-6-(4-chlorophenyl)-2-(2,5-dihydrofuran-3-yl)-5-(3,8-dimethyl-[1,2,4]triazolo[4,3-a]pyridin-6-yl)-1-isopropyl-5,6-dihydropyrrolo[3,4-d]imidazol-4(1H)-one] | 41 | 351 | >10000 | 27 | 33 | 3050 | 10.5 | 24.5 | 56.5 | 109 |
| Cc1cc(N2C(=O)c3nc(C4=CCNCC4)n(C(C)C)c3C2c2ccc(Cl)cc2)cn2c(C)nnc12 (stereo not shown) [Example 49, 6-(4-Chlorophenyl)-5-(3,8-dimethyl-[1,2,4]triazolo[4,3-a]pyridin-6-yl)-1-isopropyl-2-(1,2,3,6-tetrahydropyridin-4-yl)-5,6-dihydropyrrolo[3,4-d]imidazol-4(1H)-one] | 56 | 2040 | >10000 | 35 | 42 | 2200 | 191 | 320 | 989 | 1470 |
| Cc1cc(N2C(=O)c3nc(C4=CCN(C)CC4)n(C(C)C)c3C2c2ccc(Cl)cc2)cn2c(C)nnc12 (stereo not shown) [Example 50, 6-(4-Chlorophenyl)-5-(3,8-dimethyl-[1,2,4]triazolo[4,3-a]pyridin-6-yl)-1-isopropyl-2-(1-methyl-1,2,3,6-tetrahydropyridin-4-yl)-5,6-dihydropyrrolo[3,4-d]imidazol-4(1H)-one] | 41 | 575 | >10000 | 27 | 23.5 | 5400 | 28.8 | 57.1 | 233 | 495 |
| Cc1cc(N2C(=O)c3nc(C4=CC(C)(C)NC(C)(C)C4)n(C(C)C)c3C2c2ccc(Cl)cc2)cn2c(C)nnc12 (stereo not shown) [Example 51, 6-(4-Chlorophenyl)-5-(3,8-dimethyl-[1,2,4]triazolo[4,3-a]pyridin-6-yl)-1-isopropyl-2-(2,2,6,6-tetramethyl-1,2,3,6-tetrahydropyridin-4-yl)-5,6-dihydropyrrolo[3,4-d]imidazol-4(1H)-one] | 40 | 439 | >10000 | 19.5 | 25 | 6400 | 22.4 | 47.9 | 212 | 612 |
| Cc1cc(N2C(=O)c3nc(C)n(C(C)C)c3C2c2ccc(Cl)cc2)cn2c(C)nnc12 (stereo not shown) [Example 58, 6-(4-chlorophenyl)-5-(3,8-dimethyl-[1,2,4]triazolo[4,3-a]pyridin-6-yl)-1-isopropyl-2-methyl-5,6-dihydropyrrolo[3,4-d]imidazol-4(1H)-one] | 78 | 366 | >10000 | 55 | 38 | 10400 | 23.8 | 48.75 | 99.5 | 207.5 |
| Cc1cc(N2C(=O)c3nc(C)n(C(C)C)c3[C@H]2c2ccc(Cl)cc2)cn2c(C)nnc12 [Example 59, (R)-6-(4-chlorophenyl)-5-(3,8-dimethyl-[1,2,4]triazolo[4,3-a]pyridin-6-yl)-1-isopropyl-2-methyl-5,6-dihydropyrrolo[3,4-d]imidazol-4(1H)-one] | 48 | 117 | >10000 | 30 | 34 | 5700 | 17.8 | 34.9 | 41 | 114 |
| COc1cc(N2C(=O)c3nc(C4=CCOCC4)n(C(C)C)c3C2c2ccc(Cl)cc2)cc2c1nnn2C (stereo not shown) [Example 60] | 96 | 280 | >10000 | 31.5 | 53.5 | 21900 | 34 | 63.1 | 69 | 132 |
| COc1cc(N2C(=O)c3nc(C4=CCOCC4)n(C(C)C)c3[C@H]2c2ccc(Cl)cc2)cc2c1nnn2C [Example 61] | 100 | 116 | >10000 | 24.5 | 51.5 | 17900 | 28.2 | 55.1 | 65.4 | 149 |
